Experimental findings from patent US10513559B2, “Amatoxin-armed therapeutic cell surface binding components designed for tumour therapy” (Deutsches Krebsforschungszentrum, priority 2009, dated 2019) are described below.

One experiment deals with MCF-7 cells. Put plainly: proliferation assay, [3H]-thymidine incorporation, MCF-7. It counts as cell-based, human. The following applies: 72 or 96 h, amanitin concentration, read-out: IC50 of inhibition of cell proliferation. The method, then: Inhibition of cell growth by amanitin-IgG conjugates was determined by incorporation of [^3H]-thymidine. Serial dilutions of amanitin-huHEA125 and amanitin in complete medium (RPMI 1640 supplemented with 10% heat-inactivated FCS, 2 mM L-glutamine and 1 mM sodium pyruvate) ranging from 2×10^−5 M to 6×10^−13 M were prepared in triplicates in a volume of 100 μl in the wells of a 96 well flat-bottom tissue culture microtiter plate. […] Plates were incubated in a humidified atmosphere at 37° C. and 5% CO2 for 72 or 96 h. At 20 h before the end of the assay, 1 μCi of [^3H]-thymidine was added. Subsequently, plates were processed with a Tomtec cell harvester and the incorporated radioactivity was determined by liquid scintillation counting (Wallac Betaplate Liquid Scintillation Counter, PerkinElmer Life and Analytical Sciences) and given as cpm.
Three examples of growth inhibition induced by different amanitin-IgG conjugates are depicted in FIGS. 5, 6, and 9. In all three experiments MCF-7 cells were used. […] In the experiment outlined in FIG. 6 huHEA125-Amanitin4 was compared with an alpha-phalloidin huHEA125 conjugate and with free Amanitin.
For orientation: Uptake of a labelled nucleoside into DNA is a usual measure of proliferation.

The test system of experiment [1] is MCF-7 breast cancer cells. In words: binding of conjugates to MCF-7 cells by flow cytometry. The arrangement: species or system human. As to conditions: 1 μg/ml, 1 h on ice; FITC-labeled secondary antibody; identical antibody amounts. On the procedure:
The abbreviation FL1-H stands for “fluorescence 1 height” which means the intensity of fluorescence 1, i.e. the green channel for FITC.
Binding of huHEA125-amanitin and huHEA125-phalloidin conjugates versus non-conjugated huHEA125 antibody was analyzed by flow cytometry. MCF-7 target cells were washed twice in FACS buffer (Dulbecco's PBS with 1% heat-inactivated fetal calf serum and 0.1% sodium azide) counted and adjusted to 2×10^7 cells per ml. Fifty μl of cell suspension was given to each well of a 96 well U-bottom microtiter plate. Immunotoxins huHEA125-amanitin1, huHEA125-amanitin4 and huHEA125-phalloidin as well as unconjugated huHEA125 antibody were added at a concentration of 1 μg/ml in a volume of 100 μl per well and incubated for 1 h on ice. The plate was centrifuged (2 min at 2000 rpm) and the supernatant was removed from the cells. Cells were re-suspended in 150 μl of FACS buffer and centrifuged again. Subsequently, 100 μl of FITC-labeled F(ab′)2 goat anti-human IgG (H+L) secondary antibody was added per well and incubated again for 1 h on ice. After two washing steps by centrifugation, cells were taken up in 100 μl/well of propidium iodide solution (1 μg/ml in FACS buffer) allowing discrimination of dead cells. Analysis was performed on a FACScan cytometer (Becton and Dickinson, Heidelberg, Germany) using CellQuest software.
(In general: Flow cytometry measures light scatter and fluorescence of single cells or particles in a stream.)

“α-Amanitin-glutarate-huHEA125 [huHEA125-Amanitin3]”: in the experiment with MCF-7 cells, the IC50 is roughly 0.002 nM.
Turning to Amanitin [reference compound], the IC50 with MCF-7 cells is roughly 100 nM.
As to “huHEA125: chimeric anti-EpCAM antibody: mouse HEA125 variable domains, human kappa light and IgG1 heavy constant chains (SEQ ID NO: 1/2, 11)”, in experiment [1], the “mean fluorescence intensity (MFI)” value is given as 1094.
